# Data taken from PubChem BioAssay (NCI).
#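 GI50 is the concentration that inhibits growth by half. TGI: concentration producing complete growth inhibition.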
# Key:
# Assay in all cases: NCI tumour cell line growth inhibition, 384-well format
# [1] = test system: A498 renal
# [2] = test system: MDA-MB-435 melanoma
# [3] = test system: SW-620 colon
# [4] = test system: NCI-H322M lung
# [5] = test system: IGROV1 ovarian
# [6] = test system: SF-295 CNS
# [7] = test system: HL-60(TB) leukemia
# [8] = test system: HT29 colon
# [9] = test system: UACC-257 melanoma
# [10] = test system: OVCAR-4 ovarian
# [11] = test system: HCT-15 colon
# [12] = test system: T-47D breast
# [13] = test system: SK-MEL-5 melanoma
# [14] = test system: NCI-H460 NSCLC
# [15] = test system: DU-145 prostate
# [16] = test system: 786-0 renal
# [17] = test system: SK-MEL-28 melanoma
# [18] = test system: SNB-19 CNS
# [19] = test system: A549 NSCLC
# [20] = test system: SR leukemia
# [21] = test system: OVCAR-3 ovarian
# [22] = test system: MALME-3M melanoma
# [23] = test system: UACC-62 melanoma
# [24] = test system: OVCAR-5 ovarian
# [25] = test system: SNB-75 CNS
# [26] = test system: MOLT-4 leukemia
# [27] = test system: K-562 leukemia
# [28] = test system: RXF 393 renal
# [29] = test system: ACHN renal
# [30] = test system: U251 glioblastoma
# [31] = test system: MCF7 breast
# [32] = test system: MDA-MB-231 breast
# [33] = test system: COLO 205 colon
# [34] = test system: HOP-62 NSCLC
# [35] = test system: PC-3 prostate
# [36] = test system: LOX IMVI melanoma
# [37] = test system: UO-31 renal
# [38] = test system: SF-539 CNS
# [39] = test system: SK-MEL-2 melanoma
# [40] = test system: M14 melanoma
# [41] = test system: HCC-2998 colon
# [42] = test system: CCRF-CEM leukemia
# [43] = test system: MDA-MB-468 breast
# [44] = test system: RPMI-8226 leukemia
# [45] = test system: HOP-92 NSCLC
# [46] = test system: HS 578T breast
# [47] = test system: BT-549 breast
# [48] = test system: NCI-H522 lung
# [49] = test system: OVCAR-8 ovarian
# [50] = test system: KM12 colon
# [51] = test system: NCI/ADR-RES ovarian
# [52] = test system: EKVX NSCLC
# [53] = test system: TK-10 renal
# [54] = test system: NCI-H226 lung
# [55] = test system: SK-OV-3 ovarian
# [56] = test system: HCT-116 colon
# [57] = test system: SN12C renal
# [58] = test system: NCI-H23 lung
# [59] = test system: SF-268 CNS
# [60] = test system: CAKI-1 renal
structure (smiles),measurement,setting,value
Cn1ncnc1[C@H]1c2n[nH]c(=O)c3cc(F)cc(c23)N[C@@H]1c1ccc(F)cc1,GI50,[1],31.1 µM
same,TGI,[1],> 100 µM
same,GI50,[2],> 100 µM
same,TGI,[2],> 100 µM
same,GI50,[3],3.66 µM
same,TGI,[3],> 100 µM
same,GI50,[4],> 100 µM
same,TGI,[4],> 100 µM
same,GI50,[5],> 33 µM
same,TGI,[5],> 100 µM
same,GI50,[6],0.204 µM
same,TGI,[6],2.56 µM
same,GI50,[7],0.625 µM
same,TGI,[7],1.99 µM
same,GI50,[8],> 100 µM
same,TGI,[8],> 100 µM
same,GI50,[9],> 100 µM
same,TGI,[9],> 100 µM
same,GI50,[10],> 84.8 µM
same,TGI,[10],> 100 µM
same,GI50,[11],> 43.7 µM
same,TGI,[11],> 100 µM
same,GI50,[12],10.9 µM
same,TGI,[12],> 100 µM
same,GI50,[13],41.1 µM
same,TGI,[13],> 100 µM
same,GI50,[14],0.0169 µM
same,TGI,[14],> 66.3 µM
same,GI50,[15],1.38 µM
same,TGI,[15],30 µM
same,GI50,[16],> 73.7 µM
same,TGI,[16],> 100 µM
same,GI50,[17],> 90.3 µM
same,TGI,[17],> 100 µM
same,GI50,[18],10.9 µM
same,TGI,[18],> 100 µM
same,GI50,[19],7.83 µM
same,TGI,[19],> 100 µM
same,TGI,[20],0.0102 µM
same,GI50,[21],> 79.7 µM
same,TGI,[21],> 100 µM
same,GI50,[22],> 64.6 µM
same,TGI,[22],> 100 µM
same,GI50,[23],14.7 µM
same,TGI,[23],> 100 µM
same,GI50,[24],> 100 µM
same,TGI,[24],> 100 µM
same,GI50,[25],6.38 µM
same,TGI,[25],29.5 µM
same,GI50,[26],0.0183 µM
same,TGI,[26],0.145 µM
same,GI50,[27],30.7 µM
same,TGI,[27],> 100 µM
same,GI50,[28],3.29 µM
same,TGI,[28],> 26.9 µM
same,GI50,[29],17 µM
same,TGI,[29],> 100 µM
same,GI50,[30],2.88 µM
same,TGI,[30],> 100 µM
same,GI50,[31],1.72 µM
same,TGI,[31],> 100 µM
same,GI50,[32],> 100 µM
same,TGI,[32],> 100 µM
same,GI50,[33],1.87 µM
same,TGI,[33],> 100 µM
same,GI50,[34],0.228 µM
same,TGI,[34],8.8 µM
same,GI50,[35],> 100 µM
same,TGI,[35],> 100 µM
same,GI50,[36],2.07 µM
same,TGI,[36],> 100 µM
same,GI50,[37],26.9 µM
same,TGI,[37],> 100 µM
same,GI50,[38],1.02 µM
same,TGI,[38],> 100 µM
same,GI50,[39],> 100 µM
same,TGI,[39],> 100 µM
same,GI50,[40],2.25 µM
same,TGI,[40],> 100 µM
same,GI50,[41],40.3 µM
same,TGI,[41],> 100 µM
same,GI50,[42],0.256 µM
same,TGI,[42],1.27 µM
same,GI50,[43],0.123 µM
same,TGI,[43],1.13 µM
same,GI50,[44],6.39 µM
same,TGI,[44],> 100 µM
same,GI50,[45],46.9 µM
same,TGI,[45],> 100 µM
same,GI50,[46],15.2 µM
same,TGI,[46],> 100 µM
same,GI50,[47],2.5 µM
same,TGI,[47],> 61.4 µM
same,GI50,[48],44.6 µM
same,TGI,[48],> 100 µM
same,GI50,[49],0.804 µM
same,TGI,[49],> 100 µM
same,GI50,[50],> 100 µM
same,TGI,[50],> 100 µM
same,GI50,[51],17.4 µM
same,TGI,[51],> 100 µM
same,GI50,[52],> 78.7 µM
same,TGI,[52],> 100 µM
same,GI50,[53],> 100 µM
same,TGI,[53],> 100 µM
same,GI50,[54],22 µM
same,TGI,[54],> 100 µM
same,GI50,[55],3.82 µM
same,TGI,[55],> 100 µM
same,GI50,[56],0.706 µM
same,TGI,[56],> 100 µM
same,GI50,[57],3.72 µM
same,TGI,[57],> 100 µM
same,GI50,[58],0.56 µM
same,TGI,[58],> 47.7 µM
same,GI50,[59],1.39 µM
same,GI50,[60],21 µM
same,TGI,[60],> 100 µM
